Measured values as given in paper PMC10419174, “WR1065 conjugated to thiol-PEG polymers as novel anticancer prodrugs: broad spectrum efficacy, synergism, and drug resistance reversal” (Frontiers in Oncology, 2023).
Read-outs that look alike come from different tables or passages of the source. Marks after values point to notes of the source that are not given here.

Experiments:
Lung NCI-H460 cells [1] = test system: Lung NCI-H460 cells; design: method as in PMID 29258181, PMID 12507923, PMID 35770045, PMID 31488557; details: cited from earlier work
Ovary SKOV3 cells [2] = test system: Ovary SKOV3 cells; design: method as in PMID 29258181, PMID 12507923, PMID 35770045, PMID 31488557; details: cited from earlier work
Lung NCI-H1975 cells = test system: Lung NCI-H1975 cells; design: method as in PMID 29258181, PMID 12507923, PMID 35770045, PMID 31488557; details: cited from earlier work
Lung A549 cells [3] = test system: Lung A549 cells; design: method as in PMID 29258181, PMID 12507923, PMID 35770045, PMID 31488557; details: cited from earlier work
[4] = test system: Acute promyelocytic HL60 leukemia cells; design: method as in PMID 29258181, PMID 12507923, PMID 35770045, PMID 31488557; details: cited from earlier work
[5] = test system: Malignant pleural mesothelioma PPMMill cells; test: cells; details: 48 h
Procedure: (§1) The percentage of growth inhibition was calculated as follows: […]

NCI-H1975 NSCLC cells = test: cells; details: Homo sapiens, NCI-H1975, 48 h
Procedure: as §1

Ovary TOV21G cells = test: cells
Procedure: as §1

human cancer cell lines = test: cells; details: for cytolytic effects: exposure levels up to 500 µM, 48 h; for GI50: Homo sapiens
Procedure: as §1

Prostate DU145 cells [6] = test: cells; details: Homo sapiens, DU-145, 48 h
Procedure: as §1

A549 NSCLC cells = test: cells
Procedure: as §1

Prostate PC3 cells [7] = test: cells
Procedure: as §1

Ovary SKOV3 cells [8] = test: cells
Procedure: as §1

Pancreas PANC-1 cells [9] = test: cells; details: Homo sapiens, PANC-1, 48 h
Procedure: as §1

Prostate LNCaP cells = test: cells; details: Homo sapiens, LNCaP, 48 h
Procedure: as §1

[10] = test system: Mammary gland MDA-MB-231 cells; test: CyQUANT-NF proliferation assay, 48-h drug treatment; format: cell-based; details: Homo sapiens, MDA-MB-231; 48-h treatment; amifostine ND = not definable up to 500 µM
Procedure: Since the BRG prodrugs are composed of WR1065 as one of the major constituents, assays were conducted to determine if factors reported to modulate the activity of amino acid and polyamine plasma membrane transport systems impacted the efficacy of 4SP65 or 1LP65 in selected cancer cell lines. HL60 cells were exposed to 4SP65 with up to 0.5 mM NaCl, MBA-MD-231 cells were tested in the presence and absence of medium supplemented with estradiol plus insulin (in the BulletKit™ for growth supplements for NHMECs), HCC38 cells were exposed to 4SP65 with and without 10 µM insulin added to the growth medium, and multiple cells lines were pretreated for 24 h with 1 mM DFMO prior to starting exposures to 4SP65.
as §1

[11] = test system: Mammary gland HCC38 cells; test: as above; format: cell-based; details: 48-h treatment, amifostine ND = not definable up to 500 µM
[12] = test system: human Hec50co (p53-null) endometrial tumor xenografts; details: single agent; cited from earlier work
Lung NCI-H460 cells [13] = details: cited from earlier work; for GI50 / TGI: ref NCI Database of Screening Results
Ovary SKOV3 cells [14] = details: cited from earlier work; for GI50 / TGI: ref NCI Database of Screening Results
NCI-H460 NSCLC cells = details: drug alone, 48 h, 4SP65/cisplatin study
Source text: To test anticancer effectiveness of individual drugs or drug combinations, the CyQUANT®-NF proliferation assay was used with a plate reader (i) to generate standard curves for cell numbers for each cell line, (ii) to measure the starting cell numbers at initiation of drug treatment, and (iii) to obtain fluorescence readings from cells in 96-well plates for comparisons to a standard curve for the relevant cancer cell line and quantifying cell viability after drug treatments. […] Trypan blue exclusion was used to estimate cell numbers in a few pilot experiments and thereafter was applied to confirm very low viable cell numbers and cell death.
A series of experiments was conducted to determine the relative efficacy of 4SP65, 1LP65, and amifostine as single agents in the same human cancer cell lines.
Five metrics were calculated and used to characterize the shape of the dose-response curve following exposure to a single test agent. Using cell numbers based on fluorescence measurements and standard curves, the percentage growth was calculated at each drug concentration level. The percentage of growth inhibition was calculated as follows:
where Tz = cell numbers or fluorescence counts at time xero, C = vehicle-exposed control cell numbers at the end of the assessment time period, and Ti = test agent-exposed cell numbers or fluorescence counts at each drug concentration. […] The LC50/99 was calculated using Equation 2 = -50 and Eq. 2 = -99, respectively. […] For NHMECs, the relationships between drug exposure levels and fluorescence units were used to define dose-response metrics. The selectivity index values for individual drugs were calculated using IC50 levels in NHMECs divided by the IC50 value for each cancer cell line. Statistical comparisons of differences in individual dose-response metrics between drug treatments and cell lines were conducted using Student’s t-test, with P-values <0.05 considered significant.
Relative cell growth inhibition values for differing levels of each drug alone and in combination were input into SynergyFinder to generate dose-response curves for each drug alone and to produce a dose-response matrix. The dose-response matrix data then were used in generating a two-dimension heatmap and three-dimension volcano plot to visualize the distribution of areas of differing degrees of synergism and to calculate average and maximum synergy scores in selected human cancer cell lines. The expected drug combination responses were calculated using both the Highest Single Agent (HSA) model and the Zero interaction potency (ZIP) model.

[15] = test system: Mammary gland MDA-MB-231 cells; details: cited from earlier work; for GI50: ref NCI Database of Screening Results
[16] = test system: Malignant pleural mesothelioma HMESO1 cells; details: drug alone, 48 h, 4SP65/cisplatin study
Procedure: as §1

Prostate DU145 cells [17] = test system: Prostate DU145 cells; design: method as in NCI Database of Screening Results; details: ref NCI Database of Screening Results; cited from earlier work
Lung A549 cells [18] = details: cited from earlier work; for GI50 / TGI: ref NCI Database of Screening Results
Prostate PC3 cells [19] = details: cited from earlier work
[20] = cited from earlier work
Pancreas PANC-1 cells [21] = test system: Pancreas PANC-1 cells; design: method as in PMID 29258181, PMID 12507923, PMID 35770045, PMID 31488557; details: cited from earlier work
[22] = test system: Mammary gland MDA-MB-231 cells; design: method as in PMID 29258181, PMID 12507923, PMID 35770045, PMID 31488557; details: cited from earlier work
[23] = test system: Acute promyelocytic HL60 leukemia cells; details: cited from earlier work
[24] = test system: temperature-dependent p53 mutants; design: method as in PMID 11429700, PMID 11870884, PMID 22710932, PMID 17724467; details: 11 temperature-dependent mutants analyzed; cited from earlier work
[25] = drug alone, 4SP65/cisplatin study
[26] = drug alone, 4SP65/cisplatin study, ND = not definable, highest concentration in parentheses
[27] = drug alone, 48 h, 4SP65/cisplatin study
[28] = drug alone, 48 h, 4SP65/cisplatin study, ND = not definable, highest concentration in parentheses
[29] = ND = not definable, highest concentration in parentheses
[30] = ref NCI Database of Screening Results

SMILES: COCC1(CO)C(=O)C2CCN1CC2 (stereo not drawn) [APR-246]
- IC50 (Lung NCI-H460 cells [1]): 225 µM
- IC50 (Ovary SKOV3 cells [2]): 16.7 µM
- IC50 (Lung NCI-H1975 cells): 9.6 µM
- IC50 (Lung A549 cells [3]): 29 µM
- IC50 [4]: ~20 µM

SMILES: NCCCNCCSP(=O)(O)O [Amifostine, amifostine, reference compound]
- GI50 ([5]; Homo sapiens): 378 ± 122 µM
- GI50 (NCI-H1975 NSCLC cells): 130 ± 26 µM
- GI50 (Ovary TOV21G cells; Homo sapiens, TOV21G, 48 h): 47 ± 10 µM
- IC50 (Ovary TOV21G cells; Homo sapiens, TOV21G, 48 h): 57 ± 9 µM
- LC50 (human cancer cell lines): Not definable ^k
- cancer cell lines with limited cytostatic effects (human cancer cell lines; 14 cell lines): 11/14
- cytolytic effects (human cancer cell lines; 14 cell lines): no cytolytic effects
- cytolytic effects (human cancer cell lines; 14 cell lines, listed as amifostine): not found in any cell line
- LC99 (human cancer cell lines; 14 cell lines, highest concentration 500 µM): Not definable ^k
- GI50 (human cancer cell lines; read-out: GI50 average, GI50 values >100 µM in 7/14 cell lines): 149 µM
- GI50 (human cancer cell lines; read-out: GI50 range, GI50 values <100 µM in 4/14 cell lines: HCC38, PC3, SKOV3, TOV21G): 47 to 81 µM
- GI50 (human cancer cell lines; read-out: GI50 range, seven of 14 cell lines): 113 to 378 µM
- GI50 (human cancer cell lines; read-out: average GI50, four cell lines where amifostine GI50 <100 µM): 64.8 µM
- TGI average (human cancer cell lines; only two cell lines, HCC38 and PC3): 278 ± 24 ^j µM
- GI50 (Prostate DU145 cells [6]): 126 ± 28 µM
- IC50 (Prostate DU145 cells [6]): 319 ± 105 µM
- GI50 (A549 NSCLC cells; Homo sapiens, A549, 48 h): 241 ± 130 µM
- IC50 (A549 NSCLC cells; Homo sapiens, A549, 48 h): 261 ± 120 µM
- TGI (Prostate PC3 cells [7]; 48-h treatment, amifostine ND = not definable up to 500 µM): 301 ± 115 µM
- GI50 (Prostate PC3 cells [7]; Homo sapiens, PC-3, 48 h): 53 ± 10 µM
- IC50 (Prostate PC3 cells [7]; Homo sapiens, PC-3, 48 h): 103 ± 15 µM
- GI50 (Ovary SKOV3 cells [8]; Homo sapiens, SK-OV-3, 48 h): 81 ± 13 µM
- IC50 (Ovary SKOV3 cells [8]; Homo sapiens, SK-OV-3, 48 h): 294 ± 119 µM
- GI50 (Pancreas PANC-1 cells [9]): 113 ± 39 µM
- GI50 (Prostate LNCaP cells): 150 ± 47 µM
- IC50 (Prostate LNCaP cells): 378 ± 122 µM
- GI50 [10]: 241 ± 130 µM
- TGI [11]: 254 ± 123 µM
- GI50 ([11]; Homo sapiens, HCC38): 78.1 ± 35.7 µM
- IC50 ([11]; Homo sapiens, HCC38): 276 ± 92 µM
- inhibition of tumor xenograft growth compared to tumor size at start of treatment [12]: ~ 50%

SMILES: N.N.[Cl][Pt][Cl] [Cisplatin, cisplatin, reference compound]
- GI50 [5, 25]: 27.2 ± 3.4 µM
- IC50 [5, 25]: 40.5 ± 8.1 µM
- LC99 [5, 26]: ND (>100) µM
- TGI [5, 26]: ND (>100) µM
- gains in total growth inhibition and cytolytic effects, range (Ovary TOV21G cells; 4SP65-cisplatin combined): 1.3- to 2.9 fold
- LC99, drug in combination (CMB) (Ovary TOV21G cells; amount of each drug in combination, ratio 14% 4SP65:86% DDP, 48 h): 5.9 µM
- GI50 (Ovary TOV21G cells; [27]): 2.2 ± 0.4 µM
- IC50 (Ovary TOV21G cells; [27]): 3 ± 0.3 µM
- LC99 (Ovary TOV21G cells; [27]): 17.2 µM
- TGI (Ovary TOV21G cells; [27]): 6.7 ± 0.3 µM
- LC99 (Ovary TOV21G cells; drug alone, 48 h, 4SP65/cisplatin study, listed as DDP): 17.2 ± 5.2 µM
- gains of cytostatic and cytolytic activities, range (human cancer cell lines; 4SP65-cisplatin combined, H460, HMESO1, PPMMill, SKOV3): 1.7- to 6.9 fold
- gains of cytostatic and cytolytic activities, range (A549 NSCLC cells; 4SP65-cisplatin combined): 1.7- to 3.5 fold
- LC99, drug in combination (CMB) (A549 NSCLC cells; amount of each drug in combination, ratio 50% 4SP65:50% DDP, 48 h): 7 µM
- GI50 (A549 NSCLC cells; [27]): 3.5 ± 0.7 µM
- IC50 (A549 NSCLC cells; [27]): 4.7 ± 0.8 µM
- LC99 (A549 NSCLC cells; [27]): 24.4 ± 2.6 µM
- TGI (A549 NSCLC cells; [27]): 8.2 ± 1.0 µM
- GI50 (Ovary SKOV3 cells [8]; [27]): 5.3 ± 0.4 µM
- IC50 (Ovary SKOV3 cells [8]; [27]): 6.7 ± 0.6 µM
- LC99 (Ovary SKOV3 cells [8]; [28]): ND (>21) µM
- TGI (Ovary SKOV3 cells [8]; [28]): ND (>21) µM
- GI50 (Lung NCI-H460 cells [13]): 0.6 µM
- TGI (Lung NCI-H460 cells [13]): >100 µM
- GI50 (Ovary SKOV3 cells [14]): 2.5 µM
- TGI (Ovary SKOV3 cells [14]): >100 µM
- GI50 (NCI-H460 NSCLC cells): 3.1 ± 0.1 µM
- IC50 (NCI-H460 NSCLC cells): 4 ± 0.1 µM
- LC99 (NCI-H460 NSCLC cells; [29]): ND (>15) µM
- TGI (NCI-H460 NSCLC cells; [29]): ND (>15) µM
- GI50 [15]: 22.4 µM
- GI50 [16]: 3 ± 0.4 µM
- IC50 [16]: 8.6 ± 1.1 µM
- TGI [16]: 6.7 ± 0.7 µM
- LC99 [16, 29]: ND (>15) µM
- GI50 (Prostate DU145 cells [17]): 2 µM
- GI50 (Lung A549 cells [18]): 3.8 µM
- TGI (Lung A549 cells [18]): >100 µM
- GI50 (Prostate PC3 cells [19]; [30]): 5 µM

SMILES: COc1cc2ncnc(Nc3ccc(F)c(Cl)c3)c2cc1OCCCN1CCOCC1 [GEF, gefitinib, reference compound]
- trough levels ([20]; 250 mg daily, after 3 days of treatment): 0.257−4.50 µM
- trough levels ([20]; 250 mg daily, after 8 days of treatment): 0.282−6.55 µM
- Cmax ([20]; 250 mg daily, printed 'or more', read-out: Cmax plasma concentrations): 500 to 1000 nM
- elimination half-life [20]: 48 h

SMILES: O=C1C2CCN(CC2)C1(CO)CO [PRIMA-1]
- IC50 (Pancreas PANC-1 cells [21]): 66 µM
- GI50 (Lung NCI-H460 cells [1]): 40 µM
- GI50 (Ovary SKOV3 cells [2]): 63 µM
- IC50 [22]: 141 µM
- GI50 (Lung A549 cells [3]): 63 µM

SMILES: CC(=O)O[C@H]1C(=O)[C@@]2(C)[C@H]([C@H](OC(=O)c3ccccc3)[C@]3(O)C[C@H](OC(=O)[C@H](O)[C@@H](NC(=O)c4ccccc4)c4ccccc4)C(C)=C1C3(C)C)[C@]1(OC(C)=O)CO[C@@H]1C[C@@H]2O [Paclitaxel, paclitaxel]
- CC50 (Lung NCI-H460 cells [13]): > 100 µM
- GI50 (Lung NCI-H460 cells [13]): 5.8 µM
- TGI (Lung NCI-H460 cells [13]): 90.4 µM
- CC50 (Ovary SKOV3 cells [14]): > 100 µM
- GI50 (Ovary SKOV3 cells [14]): 0.52 µM
- TGI (Ovary SKOV3 cells [14]): 5.2 µM
- CC50 [15]: > 100 µM
- GI50 [15]: 6.4 µM
- inhibition of tumor xenograft growth compared to tumor size at start of treatment [12]: ~ 50%
- GI50 (Prostate DU145 cells [17]): 1.9 µM
- TGI (Prostate DU145 cells [17]): >100 µM
- CC50 (Lung A549 cells [18]): > 100 µM
- GI50 (Lung A549 cells [18]): 9.2 µM
- TGI (Lung A549 cells [18]): >100 µM
- CC50 [23]: > 100 µM
- GI50 [23, 30]: 25.8 µM
- TGI [23, 30]: >100 µM
- CC50 (Prostate PC3 cells [19]): > 100 µM
- GI50 (Prostate PC3 cells [19]; [30]): 36.4 µM
- TGI (Prostate PC3 cells [19]; [30]): >100 µM

SMILES: NCCCNCCS [WR1065, 2-[(3-aminopropyl)amino]ethanethiol]
- p53 mutants reactivated to some degree [24]: 8/11
